According to US20260083722A1, “BIFUNCTIONAL DEGRADERS COMPRISING ELECTROPHILIC PROTACS THAT ENGAGE DCAF1 AND PHARMACEUTICAL COMPOSITIONS COMPRISING THE SAME” (THE SCRIPPS RESEARCH INSTITUTE, priority 2022, published 2026):

Molecular target: T1, HA-FKBP12 (Homo sapiens, UniProt P62942)
T1 construct: expressed in transfected cells; host or cells: HEK293T
Assay: HA-FKBP12 abundance by Western blotting in transfected HEK293T cells
Type: cell-based
Conditions: for time after treatment until evidence of HA-FKBP12 degradation: 2 μM each, FLAG-DCAF1-transfected cells; for lowest concentration with evidence of FKBP12 degradation: HEK293T co-expressing HA-FKBP12 and FLAG-DCAF1; for degradation of FKBP12: cells expressing DCAF1-C1113A mutant; for hook effect in HA-FKBP12 degradation: emerging at 5 μM
Text: (A) Left, western blots showing concentration-dependent effects of YT47R (upper) and YT41R (lower) on FKBP12 abundance in HEK293T cells expressing HA-FBKP12 with or without co-expression of FLAG-DCAF1. Right, quantification of HA-FKBP12 abundance in the indicated experimental groups. (B) Left, western blots showing effects of YT47R versus YT47S (upper) and YT41R versus YT41S (lower) on FKBP12 abundance in HEK293T cells co-expressing HA-FBKP12 and FLAG-DCAF1. Right, quantification of HA-FKBP12 abundance in the indicated experimental groups. (C) Western blots showing effects of YT47R (left blots) and YT41R (right blots) on FKBP12 abundance in HEK293T cells co-expressing HA-FBKP12 and either FLAG-DCAF1-WT or FLAG-DCAF1-C1113A mutant. Quantification of HA-FKBP12 abundance in the indicated experimental groups is shown in the adjacent bar graphs. For (A-C), FKBP12 abundance was determined at 24 h post-treatment with compounds, and data are mean values±SEM for three independent experiments. Statistical significance was calculated with unpaired two-tailed Student's t-tests comparing YT41R/YT47R- and DMSO-treated cells. ***P<0.001, ****P<0.0001.
(A) Left, western blots showing effects of proteasome (MG132) and Neddylation (MLN4924) inhibitors (1 h pre-treatment) on YT47R- and YT41R-dependent degradation of FKBP12 in HEK293T cells co-expressing HA-FBKP12 and FLAG-DCAF1. FKBP12 abundance was determined at 24 h post-treatment with YT47R or YT41R. Right, quantification of HA-FKBP12 abundance in the indicated experimental groups. (B) Left, western blots showing effects of the FKBP12 ligand SLF (20 μM) or DCAF1 ligand MY-11B (1 h pre-treatment with 20 μM SLF or 5 μM MY-11B) on YT47R- and YT41R-dependent degradation of FKBP12 in HEK293T cells co-expressing HA-FBKP12 and FLAG-DCAF1. FKBP12 abundance was determined at 24 h post-treatment with YT47R or YT41R. Right, quantification of HA-FKBP12 abundance in the indicated experimental groups. (C) Left, western blots showing effects of MY-11A or MY-11B (5 μM, 1 h pre-treatment) on YT47R- and YT41R-dependent degradation of FKBP12 in HEK293T cells co-expressing HA-FBKP12 and FLAG-DCAF1. FKBP12 abundance was determined at 24 h post-treatment with YT47R or YT41R. Right, quantification of HA-FKBP12 abundance in the indicated experimental groups. For (A-C), data are mean values±SEM for three-five independent experiments. Statistical significance was calculated with unpaired two-tailed Student's t-tests comparing YT41R/YT47R- and DMSO-treated cells. ****P<0.0001.
Figure S3. Concentration-dependent degradation of FKBP12 by DCAF1-directed electrophilic PROTACs. Top, western blots showing concentration-dependent effects of YT47R and YT41R on FKBP12 abundance in HEK293T cells co-expressing HA-FBKP12 and FLAG-DCAF1. Data are mean values±SEM for four independent experiments. Statistical significance was calculated with unpaired two-tailed Student's t-tests comparing YT41R/YT47R- and DMSO-treated cells. *P<0.1, **P<0.01, ***P<0.001, ****P<0.0001.
Figure S4. Time-dependent degradation of FKBP12 by DCAF1-directed electrophilic PROTACs. Top, western blots showing time-dependent effects of YT47R and YT41R (2 μM each) on FKBP12 abundance in HEK293T cells co-expressing HA-FBKP12 and FLAG-DCAF1. Data are mean values±SEM for four independent experiments. Statistical significance was calculated with unpaired two-tailed Student's t-tests comparing YT41R/YT47R- and DMSO-treated cells. ****P<0.0001.
We next treated HEK293T cells co-transfected with FLAG epitope-tagged full length DCAF1 (a.a.'s 1-1507) and HA (hemagglutinin) epitope-tagged FKBP12 with a concentration range of YT41R or YT47R and, after 24 h, measured HA-FKBP12 abundance by Western blotting.

[1] = HEK293T cells transfected only with HA-FKBP12, 24 h
[2] = HEK293T co-transfected with FLAG-DCAF1 and HA-FKBP12, 24 h

T1 sequence (P62942 whole entry): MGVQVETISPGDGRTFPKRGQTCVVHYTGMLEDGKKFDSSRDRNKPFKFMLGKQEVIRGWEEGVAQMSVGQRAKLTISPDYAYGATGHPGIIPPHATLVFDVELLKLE

| Structure (SMILES) | time after treatment until evidence of HA-FKBP12 degradation [h] | degradation of HA-FKBP12 [1] | lowest concentration with evidence of FKBP12 degradation [µM] | degradation of HA-FKBP12 [2] | degradation of FKBP12 | hook effect in HA-FKBP12 degradation |
| --- | --- | --- | --- | --- | --- | --- |
| C=CC(=O)N1C[C@H](c2ccc(C(=O)NCCOCCOCCOCCNC(=O)COc3cccc([C@@H](CCc4ccc(OC)c(OC)c4)OC(=O)[C@@H]4CCCCN4C(=O)C(=O)C(C)(C)CC)c3)cc2)[C@@H]1C(=O)Nc1cccc2cccnc12 [YT47R] | ~24 | not | 0.25 | Robust concentration-dependent degradation | did not promote the degradation | possible modest hook effect |
| C=CC(=O)C1C[C@H](c2ccc(C(=O)NCCOCCOCCNC(=O)COc3cccc([C@@H](CCc4ccc(OC)c(OC)c4)OC(=O)[C@@H]4CCCCN4C(=O)C(=O)C(C)(C)CC)c3)cc2)[C@@H]1C(=O)Nc1cccc2cccnc12 (stereo partly drawn) [YT41R] | ~24 | not | 0.25 | Robust concentration-dependent degradation | did not promote the degradation | possible modest hook effect |
